The values below come from patent US10501479B2, “Benzenesulfonyl-asymmetric ureas and medical uses thereof” (HELSINN HEALTHCARE SA, priority 2016, dated 2019).

A word on the IC50: it is the concentration that gives 50% inhibition.

Series [1] deals with T1, recombinant human ghrelin receptor (HEK293/GRLN) (Homo sapiens, UniProt Q92847).
T1 construct: expressed in transfected cells
Briefly: Ghrelin inverse agonist potency (EC50) with IP-1 (IP-One HTRF) assay. The format is cell-based. Particulars: IP-1 assay. Summed up:
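IP-1 accumulation was measured by HTRF (IP1-d2/Tb-cryptate, 620/665 nm read after 1 hour at room temperature) following 1 hour of compound treatment at 37° C. Cells were HEK293 stably expressing human ghrelin receptor, plated a day earlier on Matrigel. Inverse agonist potency was reported as EC50.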
In general terms: Time-resolved FRET reads energy transfer from a long-lived donor to a nearby acceptor.

The target of series [2] is T2, GHSR-1a (HEK293/GHSR1a cell line) (Homo sapiens, UniProt Q92847).
T2 construct: expressed in transfected cells; host or cells: HEK293/GHSR1a cell line
T2 sequence (Q92847 whole entry): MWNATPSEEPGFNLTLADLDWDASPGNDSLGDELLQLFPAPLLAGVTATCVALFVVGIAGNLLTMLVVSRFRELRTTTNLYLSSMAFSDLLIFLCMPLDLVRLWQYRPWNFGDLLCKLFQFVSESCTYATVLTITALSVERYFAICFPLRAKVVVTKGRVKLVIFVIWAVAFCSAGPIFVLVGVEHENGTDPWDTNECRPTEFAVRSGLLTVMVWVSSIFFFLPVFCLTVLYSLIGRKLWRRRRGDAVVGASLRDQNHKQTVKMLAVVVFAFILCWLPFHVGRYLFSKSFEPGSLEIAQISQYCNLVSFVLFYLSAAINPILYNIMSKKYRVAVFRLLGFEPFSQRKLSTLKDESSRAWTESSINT
Briefly: Ghrelin antagonist potency (IC50) with calcium FLIPR assay, ghrelin 10 nM. The format is cell-based. Particulars: ghrelin antagonist potency. Summed up:
(§1)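 Calcium flux was followed 2 min by FLIPR in dye-loaded HEK293/GHSR1a cells. For antagonist IC50, compound and ghrelin (10 nM) were co-added at t=20 sec and inhibition of the ghrelin signal fitted; for agonist EC50, compound alone was added at t=20 sec and dose-response fitted.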

Series [3] can be described thus: Animal PK study in mouse via i.v., p.o. and s.c. administration. Format: in vivo. The conditions noted are these: for PK CLiv / PK Vdiv / PK t1/2iv: i.v.; for PK CLpo / PK Vdpo / PK t1/2po: p.o. The method, then: All treated animals received a single dose of a test compound (either through i.v., p.o., or s.c. administration) according to the regimen shown in the following table:
For oral dose groups, appropriate amount of test compound was prepared in the following formulation carrier: 1% DMSO (increase to 5% maximum if necessary) and 0.5% Methycellulose. Each mouse or rat received by oral gavage 10 mL/kg of the formulation mixture.
For i.v. and s.c dose groups, appropriate amount of test compound was dissolved in 1% DMSO (increase to 5% maximum if necessary), 99% of 20% HP-β-Cyclodextron (w/v). The pH was adjusted accordingly. Each mouse or rat received 5 mL/kg of the formulation mixture. i.v. dose was administered by tail vein injection. Subcutaneous injection was administered over the shoulders, into the loose skin over the neck. At designated time points (e.g., i.v. and s.c.: 0.083, 0.25, 0.5, 1, 2, 4, 8 and 24 hrs; p.o.: 0.25, 0.5, 1, 2, 4, 8 and 24 hrs), systemic samples of blood (50 μL in mouse or 500 μL in rat) were collected by puncture (submandibular vein in mouse or jugular vein in rat) into vacutainers containing EDTA-K2 as anti-coagulant. The blood was centrifuged at 6000 rpm for 8 min at 4° C. to obtain plasma. All plasma samples were stored at −20° C. All plasma samples were added to acetonitrile for protein precipitation and quantitatively analyzed by LC-MS/MS.

In series [4] the target is T2, GHSR-1a (HEK293/GHSR1a cell line). In words: Ghrelin agonist potency (EC50) with calcium FLIPR assay. Format: cell-based. The conditions noted are these: ghrelin agonist potency, read-out: Activity EC50/EMax. Summed up:
as §1

Where [5] appears, read: inverse agonist potency, read-out: EC50 (Activity).
Where [6] appears, read: ghrelin inverse agonist potency, read-out: Activity EC50.

Like-named read-outs stand apart in the source and are kept apart here.

T1 sequence (Q92847 whole entry): as above

Consider `C[C@H](NC(=O)Nc1ccc(S(=O)(=O)Nc2ccc3c(c2)CCNC3)cc1)c1cccc(Cl)c1Cl.Cl` [H1004, (S)-4-(3-(1-(2,3-dichlorophenyl)ethyl)ureido)-N-(1,2,3,4-tetrahydroisoquinolin-6-yl)benzenesulfonamide], for which the EC50 in series [1] (setting [5]) turned out to be 3.97 nM. Further, the IC50 in series [2] (read-out: IC50 (Activity)) worked out at 3.7 nM. Besides, in series [3], the “PK F” value is listed as 13%, the “PK CLiv” value came to 592 mL/min/kg, the “PK Vdiv” value amounted to 37.7 L/kg and the “PK t1/2iv” value was determined as 0.74 h. Also, in series [3], the “PK CLpo” value was determined as 3732 mL/min/kg, the “PK Vdpo” value is 479.2 L/kg and the “PK t1/2po” value is given as 1.48 h.
Regarding `COc1ccc([C@H](C)NC(=O)Nc2ccc(S(=O)(=O)Nc3ccc4c(c3)CCNC4)cc2)c(Cl)c1Cl.Cl` [H1005, (S)-4-(3-(1-(2,3-dichloro-4-methoxyphenyl)ethyl)ureido)-N-(1,2,3,4-tetrahydroisoquinolin-6-yl)benzenesulfonamide], the EC50 in series [1] (setting [5]) is 8.88 nM. Moreover, the IC50 in series [2] (read-out: IC50 (Activity)) worked out at 19.8 nM. In addition, in series [3], the “PK F” value is 1.3%, the “PK CLiv” value is 7.33 mL/min/kg, the “PK Vdiv” value turned out to be 1.46 L/kg and the “PK t1/2iv” value was found to be 2.3 h. Also, in series [3], the “PK CLpo” value came out at 555.5 mL/min/kg, the “PK Vdpo” value was determined as 112.3 L/kg and the “PK t1/2po” value came to 2.33 h.
Take `CCOC(=O)N1CCc2cc(NS(=O)(=O)c3ccc(NC(=O)N[C@@H](C)c4cccc(Cl)c4Cl)cc3)ccc2C1` [H1054, ethyl (S)-6-((4-(3-(1-(2,3-dichlorophenyl)ethyl)ureido)phenyl)sulfonamido)-3,4-dihydroisoquinoline-2(1H)-carboxylate]: the IC50 in series [2] (read-out: IC50 (Activity)) was found to be 10100 nM. For the same molecule, in series [3], the “PK F” value turned out to be 3.0%, the “PK CLiv” value turned out to be 27 mL/min/kg, the “PK Vdiv” value is 4.32 L/kg and the “PK t1/2iv” value was determined as 1.85 h. Moreover, in series [3], the “PK CLpo” value was found to be 898 mL/min/kg, the “PK Vdpo” value was determined as 96.2 L/kg and the “PK t1/2po” value is given as 1.24 h.
`CC(NC(=O)Nc1ccc(S(=O)(=O)Cc2ccc3c(c2)CNC3)c(C(N)=O)c1)c1ccccc1` (centres unmarked) [H1531, 2-((isoindolin-5-ylmethyl)sulfonyl)-5-(3-(1-phenylethyl)ureido)benzamide]: the EC50 is 444 nM in series [1] (setting [6]) and over 30000 nM in series [4]. Further, in series [2] (read-out: Activity IC50), the IC50 is 418 nM.
Regarding `CC(NC(=O)Nc1ccc(S(=O)(=O)Cc2ccc3c(c2)CNC3)cc1-c1cn[nH]c1)c1ccccc1` (centres unmarked) [H1532, 1-(4-((isoindolin-5-ylmethyl)sulfonyl)-2-(1H-pyrazol-4-yl)phenyl)-3-(1-phenylethyl)urea], the EC50 is 69.5 nM in series [1] (setting [6]) and over 30000 nM in series [4]. The IC50 in series [2] (read-out: Activity IC50) is 1660 nM.
For `CC(NC(=O)Nc1ccc(S(=O)(=O)Cc2ccc3c(c2)CNC3)cc1-c1cccnc1)c1ccccc1` (centres unmarked) [H1533, 1-(4-((isoindolin-5-ylmethyl)sulfonyl)-2-(pyridin-3-yl)phenyl)-3-(1-phenylethyl)urea], the EC50 in series [1] (setting [6]) is 76.2 nM; in series [4], over 30000 nM. In addition, the IC50 in series [2] (read-out: Activity IC50) was found to be 1700 nM.
On the same counts, the results for `CC(NC(=O)Nc1ccc(S(=O)(=O)Cc2ccc3c(c2)CNC3)cc1-c1ccncc1)c1ccccc1` (centres unmarked) [H1534, 1-(4-((isoindolin-5-ylmethyl)sulfonyl)-2-(pyridin-4-yl)phenyl)-3-(1-phenylethyl)urea] are 89.5 nM, over 30000 nM and 1660 nM.
The matching figures for `CC(NC(=O)Nc1ccc(S(=O)(=O)Cc2ccc3c(c2)CNC3)cc1-c1cnn(C)c1)c1ccccc1` (centres unmarked) [H1535, 1-(4-((isoindolin-5-ylmethyl)sulfonyl)-2-(1-methyl-1H-pyrazol-4-yl)phenyl)-3-(1-phenylethyl)urea]: 21.4 nM, over 30000 nM and 493 nM.
The matching figures for `C[C@@H](NC(=O)Nc1ccc(S(=O)(=O)Cc2ccc3c(c2)C(F)CN(C)C3)cc1)c1ccccc1` (stereo partly drawn) [H1539, 1-(4-(((4-fluoro-2-methyl-1,2,3,4-tetrahydroisoquinolin-6-yl)methyl)sulfonyl)phenyl)-3-((R)-1-phenylethyl)urea]: 263 nM, over 30000 nM and 8050 nM.
Turning to `C[C@@H](NC(=O)Nc1ccc(S(=O)(=O)Cc2ccc3c(c2)C(F)CNC3)cc1)c1ccccc1` (stereo partly drawn) [H1540, 1-(4-(((4-fluoro-1,2,3,4-tetrahydroisoquinolin-6-yl)methyl)sulfonyl)phenyl)-3-((R)-1-phenylethyl)urea], the values for the EC50 in series [1] (setting [6]) and in series [4] were 206 nM and over 30000 nM, respectively. Further, the IC50 in series [2] (read-out: Activity IC50) came out at 7440 nM.
For the molecule `CC(NC(=O)Nc1ccc(S(=O)(=O)Cc2ccc3c(c2)C(F)(F)CNC3)cc1)c1ccccc1` (centres unmarked) [H1545, 1-(4-(((4,4-difluoro-1,2,3,4-tetrahydroisoquinolin-6-yl)methyl)sulfonyl)phenyl)-3-(1-phenylethyl)urea], the EC50 is 19.1 nM in series [1] (setting [6]) and over 30000 nM in series [4]. The IC50 in series [2] (read-out: Activity IC50) stood at 1720 nM.
The matching figures for `CC(NC(=O)Nc1ccc(S(=O)(=O)Cc2ccc3c(c2)C(F)(F)CN(C)C3)cc1)c1ccccc1` (centres unmarked) [H1546, 1-(4-(((4,4-difluoro-2-methyl-1,2,3,4-tetrahydroisoquinolin-6-yl)methyl)sulfonyl)phenyl)-3-(1-phenylethyl)urea]: 126 nM, over 30000 nM and 1080 nM.
For the molecule `CC(NC(=O)Nc1ccc(S(=O)(=O)Cc2ccc3c(c2)C(F)(F)CNC3)cc1)c1cccc(Cl)c1Cl` (centres unmarked) [H1547, 1-(1-(2,3-dichlorophenyl)ethyl)-3-(4-(((4,4-difluoro-1,2,3,4-tetrahydroisoquinolin-6-yl)methyl)sulfonyl)phenyl)urea], the figures for the EC50 in series [1] (setting [6]) and in series [4] were 35 nM and over 30000 nM, respectively. For the same molecule, the IC50 in series [2] (read-out: Activity IC50) came out at 456 nM.
For the molecule `CC(NC(=O)Nc1ccc(S(=O)(=O)Cc2ccc3c(c2)C(F)(F)CN(C)C3)cc1)c1cccc(Cl)c1Cl` (centres unmarked) [H1548, 1-(1-(2,3-dichlorophenyl)ethyl)-3-(4-(((4,4-difluoro-2-methyl-1,2,3,4-tetrahydroisoquinolin-6-yl)methyl)sulfonyl)phenyl)urea], the EC50 in series [1] (setting [6]) is 132 nM; in series [4] it was over 30000 nM. In addition, the IC50 in series [2] (read-out: Activity IC50) came to 655 nM.
`CC(NC(=O)Nc1ccc(S(=O)(=O)Cc2ccc3c(c2)CNC3)cc1C(=O)O)c1cccc(Cl)c1Cl` (centres unmarked) [H1549, 2-(3-(1-(2,3-dichlorophenyl)ethyl)ureido)-5-((isoindolin-5-ylmethyl)sulfonyl)benzoic acid]: the EC50 is 1.2 nM in series [1] (setting [6]) and over 30000 nM in series [4]. The IC50 in series [2] (read-out: Activity IC50) amounted to 1.69 nM.
